Tests used:
J20 mice [1] = assay: GFAP astrogliosis, treated symptomatic J20 mice brains; type: in vivo, mouse; conditions: 50 mg/kg
Text: FIG. 18: ELISA measures of cytokines in vehicle-treated WT and J20 mice and VX-765-treated J20 mice. (a) Plasma levels of II-1β in mice after T3. (b) Cytokine levels in vehicle-treated WT and J20 and in VX-765-treated J20 brain hippocampi and cortex. (c) GFAP immunostaining density in vehicle-treated WT (n=6) and J20 (n=5) and in VX-765-treated J20 (n=4) brain hippocampi (F(2,12)=5.234, p=0.0232, ANOVA, Dunnett's post-hoc compared to WT+Vehicle, *p<0.05) and cortex. (d) Western blots and quantitative analyses of GFAP in vehicle-treated WT and J20 and in VX-765-treated J20 brain hippocampi and cortex.
To assess AD-like pathology, immunohistochemical analyses were performed to detect amyloid deposition (anti-AβF25276)^5,6, microglial (Iba1) activation^7, astrogliosis (GFAP), synaptophysin protein levels on coronal brain sections. Multiplex MSD ELISA was used to assess Aβ levels and 38,40, and 42 subtypes, and II-1β brain levels. RT-PCR was used to assess levels of human APP^Sw/Ind.

J20 mice [2] = assay: Iba1 and GFAP immunostaining, preventive treatment of J20 mice; type: in vivo, mouse
Text: FIG. 4: Immunostainings of mice hippocampus at 4 months of age (PREVENTION GROUP) with microglial Iba-1, astrocyte GFAP, and synaptic synaptophysin antibodies.
FIG. 25: Iba1 immunopositive staining in the mice brain hippocampus at different times of washout (a,b). All sections were immunostained together and automatically with Dako immunostainer and the number of Iba1-immunopositive […] counted stereologically. Statistics done as described in FIG. 10b. (c) Analyses of subtypes of Iba1-immunopositive microglia as described in FIG. 10c.
FIG. 26: GFAP immunopositive staining in the hippocampus of mice brains at different times of washout (a,b). All sections were immunostained together and automatically with Dako immunostainer. Quantitation of GFAP-immunopositive astrocytes was done as described above.
(§1) We directly tested whether pre-symptomatic inhibition of inflammation in a mouse genetic model of Alzheimer disease can stem the progression of memory and behavioral deficits, and Alzheimer disease-like pathology. The J20 amyloid precursor protein Swedish/Indiana mutant mouse was treated at 2 months of age for a one month period with 50 mg/Kg Caspase-1 inhibitor VX-765 (FIG. 22a).

human Casp2 to 10 = assay: Selectivity against human Casp2 to 10; type: biochemical; conditions: recombinant caspases
Description: FIG. 14: Selectivity and blood brain permeability of VX-765 and VRT-043198. (a-b) IC50 of VX-765 (a) and VRT-043198 (b) against human Casp1-10. (c-d) IC50 of VX-765 (c) and VRT-043198 (d) against mouse Casp1 and Casp11. (e) Blood brain barrier permeability and presence of VX-765 and VRT-043198 in 3 wild type and 4 J20 mice brain cortex and hippocampus and in plasma. Ratios of brain levels to plasma levels are calculated.

[3] = tested on: CNS primary human neurons (HPN); assay: MTT assay in primary human neurons; type: cell-based; conditions: 25, 50, 100, or 200 μM for 72 hours
Description: FIG. 13: VX-765 protects CNS primary human neurons (HPN) against APP- or serum deprivation-mediated neuritic beading. (a) MTT assay with increasing dose of VX-765. (b) Fluorescent micrographs showing homogeneous distribution of EGFP in normal neurons and neuritic beading in APP-transfected neurons. (c) Percentage beading in APP-transfected or serum-deprived neurons treated 1 h before and continuously with stressor (Pre-treatment) or 48 h after stressor (post-beading treatment) with 25 or 50 μM VX-765 or with 5 μM Z-YVAD-fmk Casp1 peptide inhibitor. […] (d-e) HPN secreted or cellular Aβ42/total Aβ38+40+42 (d) (F(3,4)=12.73, p=0.0163, ANOVA, Dunnett's post-hoc compared to Serum+DMSO, *p<0.05), and (e) levels of secreted II-1β, IFN-γ, TNF-α, and II-6 from untreated (+S), serum deprived (−S), or serum-deprived human neurons treated with 25 or 50 μM VX-765.
To determine if VX-765 can protect human neurons against neurodegeneration, VX-765 was assessed in primary human fetal CNS neuron cultures. Treatment of HPN with 25, 50, 100, or 200 μM VX-765 for 72 hours was not toxic (FIG. 13a). […] HPN were pre-treated with VX-765 for 1 h before APP transfection and treatment continued thereafter. […] To assess if neuritic beading was reversible, VX-765 was administered 48 hours after APP^WT transfection or serum deprivation.

J20 mice [4] = assay: Barnes maze, preventive treatment of pre-symptomatic J20 mice; type: in vivo, mouse
Text: FIG. 23: Barnes maze to assess spatial memory in J20 mice. Barnes maze tested at washout at (a-c) 12 week (6 months of age) and (d-f) 20 week (8 months of age). (a,d) Learning to find the escape hatch over 4 days in seconds. (b,e) Primary latency to reach the escape hatch and primary errors to find the hatch. In (b) One-way ANOVA (F(2,29)=5.948, p=0.0068), in (e) One-way ANOVA (F(2,22)=7.2545, p=0.0038) followed by Dunnett's pot-hoc *p<0.05, ** p<0.01. (c,f) Probe test: number of pokes for each of the 20 holes of the Barnes maze when hatch hole is blocked. T indicates target hole where hatch was accessible during training.
as §1

Q: How did the “GFAP astrogliosis in cortex and hippocampus” value (J20 mice [1]; after Treatment 3) turn out when `CCO[C@@H]1OC(=O)C[C@@H]1NC(=O)[C@@H]1CCCN1C(=O)[C@@H](NC(=O)c1ccc(N)c(Cl)c1)C(C)(C)C` [VX-765, (S)-1-((S)-2-{[1-(4-amino-3-chloro-phenyl)-methanoyl]-amino}-3,3-dimethyl-butanoyl)-pyrrolidine-2-carboxylic acid ((2R,3S)-2-ethoxy-5-oxo-tetrahydro-furan-3-yl)-amide] was run?
A: The value was “almost returned to WT levels”.

Q: What about the GFAP in cortex (J20 mice [1]; densitometry, 12 injections) of the same compound?
A: The GFAP in cortex was “reduced in VX-765-treated J20 cortex, but the data did not reach statistical significance”.

Q: What about the GFAP astrogliosis (J20 mice [2]; 4 month old J20 brains) of the same compound?
A: The GFAP astrogliosis was “possibly GFAP astrogliosis”.

Q: And the “microglial Iba1 positive inflammation” value (J20 mice [2]; 4 month old J20 brains)?
A: The value was “reduced microglial Iba1 positive inflammation”.

Q: And the “astrocytic GFAP immunostaining” value (J20 mice [2]; different times of washout)?
A: The value was “does not reach statistical significance”.

Q: What about the “Iba1 positive microglial inflammation” value (J20 mice [2]; hippocampus and cortex, different times of washout) of the same compound?
A: Its value is “strongly decreased microglial inflammation”.

Q: What about the subtype of microglia (J20 mice [2]; up to the 12 week washout, hippocampus and cortex) of the same compound?
A: Its subtype of microglia is “restores resting microglia numbers”.

Q: What about the “inhibition of human Casp1 relative to human Casp2 to 10” value (human Casp2 to 10) of the same compound?
A: Its value is “potently and specifically inhibited”.

Q: And the “toxicity (MTT assay)” value [3]?
A: The value was “not toxic”.

Q: And the “Barnes maze ability to distinguish the target area” value (J20 mice [4]; 12-week washout)?
A: The value was “better ability to distinguish the target area”.

Q: And the “Barnes maze primary errors” value (J20 mice [4]; 12-week washout)?
A: The value was “corrected this deficit”.

Q: And the “Barnes maze primary latency” value (J20 mice [4]; 12-week washout (6 months of age))?
A: The value was “tended towards a better performance”.

Q: What about the “Barnes maze identifying the target area in probe test” value (J20 mice [4]; 20-week washout) of the same compound?
A: Its value is “performed better than the Vehicle-treated J20 mice”.

Q: What about the “Barnes maze learning phase” value (J20 mice [4]; 20-week washout) of the same compound?
A: The value was “performed normally in the learning phase”.

Q: What about the “Barnes maze primary latency and primary errors” value (J20 mice [4]; 20-week washout) of the same compound?
A: The value was “did not reach statistical significance”.

Source: patent publication US11160788B2, “Caspase-1 inhibition and uses thereof for prevention and treatment of neurological conditions” (priority 2016, dated 2021)
